Tested on: Nippostrongylus brasiliensis
Experiment: Anthelmintic activity against Nippostrongylus brasiliensis L4 parasitant on day 5 by double serial dilution model
Type: functional, organism-based
Details: 120 h

Row | SMILES | EC50
1 | COc1cccc2c(/C=C/C(=O)N/C=C/c3cn(C)c4ccccc34)cn(C)c12 | 300 µM
2 | O=C(/C=C/c1c[nH]c2ccccc12)N/C=C/c1c[nH]c2ccccc12 [CHONDRIAMIDE A] | 260 µM
3 | NC(=O)/C=C/c1c[nH]c2ccccc12 | 2370 µM
4 | O=C(/C=C/c1c[nH]c2ccccc12)N/C=C\c1c[nH]c2ccccc12 [CHONDRIAMIDE C] | 90 µM
